The values below come from US20200375954A1, “THERAPEUTIC AGENT FOR FOOD COMPETENCE DISORDER IN STOMACH” (ZERIA PHARMACEUTICAL CO., LTD., priority 2002, published 2020).

Structures can show the parent of a compound that is named as a salt.

In series [1] the test system is adult male mongrel dog (gastric fundus). Kind of series: Barostat test in dog. The note with it: for Volume change of Air-bag / Activity of alleviating impaired gastric accommodation (in words): i.v.; for Volume change of Air-bag: 5 minutes after liquid test meal, mean air-bag volume after vs before agent, mean ± standard error; for Volume increase of air-bag, ΔmL: method of Example 1, N=1; for Activity of alleviating impaired gastric accommodation (in words): barostat test in dog. It counts as in vivo. The protocol:
A gastric fistula (KN-365, D-14-C from Natsume Seisakusyo Co., Ltd.) was installed permanently in the center of stomach anterior wall of an adult male mongrel dog, and was used for air-bag insertion.
The fistula-installed dog was abstained from food for not shorter than 18 hours, followed by opening the gastric fistula and washing inside stomach by infusion of saline into stomach, before starting experiment. This procedure was repeated 2 to 3 times as appropriate. The air-bag (maximal volume: about 750 mL) fabricated using a commercially available polyethylene bag was inserted into stomach through gastric fistula and fixed using a silicone plug, followed by connection to barostat instrument and starting measurement under nonrestraint condition. Volume change of the air-bag was recorded on both a recorder and a computer.
After insertion of the air-bag into stomach, the bag was once infused with air up to 500 mL, followed by immediate and complete air evacuation, and starting recording by adjusting initial inner pressure of the air-bag to be 6±2 mmHg. After stabilization for not shorter than 15 minutes, 50 mL of a liquid test meal (12.5 kcal, Besvion^RT from Fujisawa Pharmaceutical Co., Ltd.) dissolved in warm water (30 to 40° C.) was […] administered into stomach. Five minutes after administration of the test meal, a solvent and test agents were administrated intravenously. Mean air-bag volumes (mL) for each 5 minutes before administration of the test meal, along with before and after administration of the test agents were calculated using a computer analyzing system to compare differences in mean air-bag volumes (mL) before and after administration of the test agents.

The conditions of series [2]: known side effect; cited from earlier work.
The test system of series [3] is patient with functional dyspepsia (stomach). Kind of series: Barostat test in human. Format: in vivo. On the procedure: A patient with functional dyspepsia, based on Rome II standard, was fasted overnight (for not shorter than 12 hours). Oral administration of 300 mg of a compound a, hydrochloride, and placebo has been conducted by a responsive doctor of clinical trial. Thirty minutes later, a polyvinyl adhesive plastic bag with dual ducts (1100 mL, maximal diameter: 17 cm, from Meditronic-Synetics Medical Ltd., Enfield, UK) was folded up to a small piece and introduced into stomach through mouth or nose, and the ducts were fixed on chin by an adhesive tape. The location of the bug in fundus of stomach was confirmed by radioscopy.
The polyvinyl tubing was connected to a computer controlled volume-replacement pressure regulator. This regulator can simultaneously monitor pressure and volume with sampling rate of 8 times per second, and also can load volume ramps and pressurizing steps with various rates. Trial subjects were kept in recumbent position and predetermined volume of air (300 mL) was infused for 2 minutes to expand the bug in stomach, and again the air was evacuated completely. After stabilization for 10 minutes, the trial subjects were allowed to keep relaxed by slightly skewing knees on a bed.
After 30 minutes of adaptation period, minimum invasive gastric dilatation pressure (MDP), that is, the minimum pressure to give not less than 30 mL of the bag inner volume, was measured by increasing inner pressure by 1 mmHg per minute. This pressure (MDP) […] equilibrates intraabdominal pressure. Then, pressure was increased from the MDP stepwisely with isobaric expansions by each 2 mmHg. At each pressure increase step, corresponding inner volume of stomach was recorded, and kept for 2 minutes. At the end of each expansion step, patients were asked to express feeling of stimulation at upper abdomen by scores from 0 to 6 with verbal explanation. The expansion procedure was terminated when inner volume of the bag reached to 1000 mL or the patient complained discomfort or soreness (score: 5 or 6).
Further, after 30 minutes of adaptation period, the pressure level was adjusted to the MDP+2 mmHg, and kept for 90 minutes. Thirty minutes later, a mixed liquid diet (200 mL, 300 kcal, protein 13%, carbohydrate 39%, Nutridrink™, Nutricia) was given by oral ingestion, followed by measurement of stomach tension over further 60 minutes.
Average inner volume of the balloon for each 2 minutes expansion period was obtained from the recorded value. […]
To evaluate stomach tension before and after meal, average volume of the balloon was measured continuously at every 5 minutes. The maximum relaxation value was obtained as difference between average volume before meal and the maximum volume after meal among average volumes measured at every 5 minutes after meal.

Consider `COc1cc(N)c(Cl)cc1C(=O)NC1CCN(CCCOc2ccc(F)cc2)CC1OC` (stereo not drawn) [Cisapride, reference compound], for which, in series [1] (0.3 mg/kg), the “Volume change of Air-bag” value was found to be 3.6 ± 25.0 mL. The “Extension of Q-T interval (adverse effect)” value in series [2] was “serious side effect such as extension of Q-T interval”.
As to `COc1cc(O)c(C(=O)Nc2nc(C(=O)NCCN(C(C)C)C(C)C)cs2)cc1OC` [Compound a, hydrochloride, 2-[N-(4,5-dimethoxy-2-hydroxybenzoyl)amino]-4-[(2-diisopropylaminoethyl)aminocarbonyl]-1,3-thiazole], in series [1] (3 mg/kg), the “Volume change of Air-bag” value worked out at 50.8 ± 16.7 mL. Besides, in series [1] (3 mg/kg, listed as compound a, hydrochloride), the “Volume change of Air-bag” value is reported as 50.8 mL. Further, the “Expansion effect compared with cisapride” value in series [1] (compound a 3 mg/kg i.v. vs cisapride 0.3 mg/kg i.v.) is “surpassed that of cisapride”. For the same compound, the “Effect on maximum relaxation value of stomach after meal (in words)” value in series [3] (300 mg, p.o.) is on record as “significantly increased”. Also, in series [3] (300 mg, p.o., N=17, after meal), the “Change in max. relaxation volume” value was found to be 24.3 ± 172.3 mL and the “Max. relaxation volume after treatment” value worked out at 313.4 mL. In addition, the “Max. relaxation volume before treatment” value in series [3] (baseline of the 300 mg p.o. group, N=17, after meal) is on record as 295.5 mL.
As to `COc1cc(Cl)c(C(=O)Nc2nc(C(=O)NCCN(C(C)C)C(C)C)cs2)cc1OC` [Compound b, Maleate, 2-[N-(2-chloro-4,5-dimethoxybenzoyl)-amino]-4-[(2-diisopropylaminoethyl)aminocarbonyl]-1,3-thiazole], the “Volume increase of air-bag, ΔmL” value in series [1] (1 mg/kg i.v.) is on record as 29.7 mL. Besides, the “Activity of alleviating impaired gastric accommodation (in words)” value (shortened to “Activity”) in series [1] is “excellent activity of alleviating impaired gastric accommodation”.
For `COc1ccc(C(=O)Nc2nc(C(=O)NCCN(C(C)C)C(C)C)cs2)cc1OC` [Compound c, hydrochloride, 2-[N-(4,5-dimethoxy-benzoyl)amino]-4-[(2-diisopropylaminoethyl)amino-carbonyl]-1,3-thiazole], the “Volume increase of air-bag, ΔmL” value in series [1] (1 mg/kg i.v.) was 58.2 mL. Also, the “Activity” value in series [1] is “excellent activity of alleviating impaired gastric accommodation”.
As for `COc1cc(O)c(C(=O)Nc2cc(C(=O)NCCN(C(C)C)C(C)C)co2)cc1OC.O=C(O)/C=C\C(=O)O` [Compound d, Maleate, 2-[N-(4,5-dimethoxy-2-hydroxybenzoyl)amino]-4-[(2-diisopropyl-aminoethyl)aminocarbonyl]furan], the “Volume increase of air-bag, ΔmL” value in series [1] (3 mg/kg i.v.) is given as 11.4 mL. Besides, the “Activity” value in series [1] is “excellent activity of alleviating impaired gastric accommodation”.
